Results reported in patent US20090202481A1, “Composition for Sustained Release Delivery of Proteins or Peptides” (priority 2008, published 2009).

Key:
Assay type in all cases: physicochemical
[1] = Purity of the octreotide in formulations at room temperature over time (HPLC); conditions: SAIB/NMP formulation
Protocol: (§1) Octreotide acetate (OCT-Ac) and octreotide conjugate (PAL-PEG-BA-OCT) powders were dissolved in NMP. Then the solutions containing various forms of octreotide were thoroughly mixed with SAIB solution in NMP (90% w/w).
(§2) The formulations as prepared above were allowed to stand at room temperature (˜22° C.). At predefined time points, the appearance of the formulations was recorded and an aliquot of each of both the supernatant and bottom composition was collected and analyzed by HPLC for octreotide content. The physical stability of the formulations was determined by direct observation or using the ratio of the content of the octreotide in the supernatant to that in the bottom composition. If the ratio equals to 1.0, the formulation is uniform and stable.

[2] = In vitro release of octreotide from SAIB/NMP formulations into PBS 7.4 at 37° C.; conditions: PBS 7.4, 37° C., SAIB/NMP formulation
Protocol: Formulations were prepared by mixing octreotide acetate (OCT-Ac) and octreotide conjugate (PAL-PEG-BA-OCT) powders with SAIB solution in NMP (90% w/w).
Due to the physical instability of the formulation containing OCT-Ac, the in vitro release was investigated immediately after the preparation of the formulations. An aliquot of the suspension was used for the in vitro release. About 0.1 mL of each formulation containing octreotide was injected into 3 mL of releasing buffer (PBS 7.4, containing 0.1% sodium azide) in a 4 mL glass vial. The vials were incubated at 37° C. and sampled at various time points. At each time point, 2 mL of release medium was removed and 2 mL of fresh release medium added. The collected samples were analyzed for peptide concentration and integrity by HPLC using an YMC-Pack ODS-120A column. Triplicate samples were used for each formulation.

[3] = Physical stability (phase separation, top/bottom ratio) of SAIB/NMP formulations standing at room temperature
Protocol: as §1, §2

## C[C@@H](O)[C@@H]1NC(=O)[C@H](CCCCN)NC(=O)[C@@H](Cc2c[nH]c3ccccc23)NC(=O)[C@H](Cc2ccccc2)NC(=O)[C@@H](NC(=O)[C@H](N)Cc2ccccc2)CSSC[C@@H](C(=O)N[C@H](CO)[C@@H](C)O)NC1=O [OCT-Ac, Octreotide acetate]
[1]; after 7 days
  Octreotide degraded in the bottom phase: more than 20%
  Octreotide degraded in the supernatant: More than half
[1]; after two hours
  Octreotide degraded or reacted: about 4%
[2]
  Initial burst release (FIG. 2): very high initial burst release
[2]; after two weeks
  Octreotide released: more than 90%
[2]; within 24 hours
  Octreotide released: More than 60%
[3]; on mixing, about 6% octreotide content
  Appearance when combined with SAIB/NMP solution: phase separation occurred immediately
[3]; room temperature, SAIB/NMP formulation
  NMP in the bottom phase: slightly more NMP
[3]; room temperature, after 5 days
  OCT ratio top/bottom: less than 0.03
[3]; room temperature, after two days
  Concentration of the octreotide in the bottom phase relative to the upper phase: about 20 folds
[3]; stood at room temperature for 24 h
  Phase separation of formulation (FIG. 1): apparent phase separation occurred
